Data on 2 compounds can be found in patent publication US11825838B2, “Tricyclic carboxamides for controlling arthropods” (Bayer CropScience Aktiengesellschaft, priority 2017, dated 2023).

Common to all, as to format: in vivo
Test [1] concerns Boophilus microplus. Put plainly: Boophilus microplus injection test. Particulars: application rate 20 μg/animal, assessed after 7 days by laying of fertile eggs.
Test [2] has as its system Lucilia cuprina. Put plainly: Lucilia cuprina test. Particulars: application rate 100 ppm, L1 larvae, after 2 days.
In test [3] the test system is cattle ticks (Boophilus microplus) Parkhurst strain, SP-resistant. The test can be described thus: Boophilus microplus dip test. Particulars: application rate 100 ppm, assessed after 7 days by laying of fertile eggs. How it is done: Boophilus microplus—Dip Test
Test animals: cattle ticks (Boophilus microplus) Parkhurst strain, SP-resistant
Solvent: dimethyl sulfoxide
10 mg of active ingredient are dissolved in 0.5 ml of dimethyl sulfoxide. To produce a suitable formulation, the active ingredient solution is diluted with water to the concentration desired in each case. This active ingredient formulation is pipetted into tubes. 8-10 engorged adult female cattle ticks (Boophilus microplus) are transferred into a further tube with holes. The tube is immersed into the active ingredient formulation, and all the ticks are completely wetted. After the liquid has run out, the ticks are transferred on filter discs into plastic dishes and stored in a climate-controlled room.
Efficacy is assessed after 7 days by laying of fertile eggs. Eggs which are not visibly fertile are stored in a climate-controlled cabinet until the larvae hatch after about 42 days. An efficacy of 100% means that none of the ticks has laid any fertile eggs; 0% means that all the eggs are fertile.

For test [4], the system named is Rhipicephalus sanguineus. Put plainly: Rhipicephalus sanguineus in vitro contact test with adult brown dog ticks. The settings on record: application rate 5 μg/cm^2 (=500 g/ha), after 48 h, adult dog ticks dead or moribund. How it is done:
Rhipicephalus sanguineus—In Vitro Contact Tests with Adult Brown Dog Ticks
(§1) For the coating of the test tubes, 9 mg of active ingredient are first dissolved in 1 ml of acetone p.a. and then diluted to the desired concentration with acetone p.a. 250 μl of the solution are distributed homogeneously on the inner walls and the base of a 25 ml glass tube by turning and rocking on an orbital shaker (rocking rotation at 30 rpm for 2 h). With 900 ppm of active ingredient solution and internal surface area 44.7 cm^2, given homogeneous distribution, an area-based dose of 5 μg/cm^2 is achieved.
After the solvent has evaporated off, the tubes are populated with 5-10 adult dog ticks (Rhipicephalus sanguineus), sealed with a perforated plastic lid and incubated in a horizontal position in the dark at room temperature and ambient humidity. After 48 h, efficacy is determined. To this end, the ticks are knocked to the base of the tube and incubated on a hotplate at 45-50° C. for not more than 5 min. Ticks which remain motionless on the base or move in such an uncoordinated manner that they are unable to deliberately avoid the heat by climbing upwards are considered to be dead or moribund.
An efficacy of 100% means that all the ticks were dead or moribund. 0% efficacy means that none of the ticks were harmed.

For test [5], the system named is Ctenocephalides felis. The test can be described thus: Ctenocephalides felis oral test. The settings on record: application rate 100 ppm in citrated cattle blood, after 2 days.
Test [6] has as its system Tetranychus urticae. Put plainly: Tetranychus urticae spray test, OP-resistant (TETRUR). Particulars: for efficacy: spray, after 6 days.
Test [7] deals with Myzus persicae. The test can be described thus: Myzus persicae spray test (MYZUPE). The settings on record: for efficacy: application rate 100 g/ha, spray, after 5 days. As for the experimental part:
Myzus persicae—Spray Test
To produce a suitable active ingredient formulation, 1 part by weight of active ingredient is dissolved with the specified parts by weight of solvent and made up to the desired concentration with water containing an emulsifier concentration of 1000 ppm. To produce further test concentrations, the formulation is diluted with emulsifier-containing water.
Discs of Chinese cabbage leaves (Brassica pekinensis) infested by all stages of the green peach aphid (Myzus persicae) are sprayed with an active compound preparation of the desired concentration.
After 5 days, the efficacy in % is determined. 100% means that all the aphids have been killed; 0% means that no aphids have been killed.
Myzus Persicae—Spray Test (MYZUPE)
To produce a suitable active compound formulation, 1 part by weight of active compound is dissolved with the specified parts by weight of solvent and made up to the desired concentration with water containing an emulsifier concentration of 1000 ppm. To produce further test concentrations, the formulation is diluted with emulsifier-containing water.
Discs of Chinese cabbage leaves (Brassica pekinensis) infested with all stages of the green peach aphid (Myzus persicae) are sprayed with an active compound formulation of the desired concentration.
After the desired time, the efficacy in % is determined. 100% means that all the aphids have been killed; 0% means that no aphids have been killed.

In test [8] the test system is Ctenocephalides felis. The test can be described thus: Ctenocephalides felis in vitro contact test with adult cat fleas. The settings on record: application rate 5 μg/cm^2 (=500 g/ha), after 48 h, adult cat fleas dead or moribund. As for the experimental part: Ctenocephalides felis—In Vitro Contact Tests with Adult Cat Fleas
as §1
After the solvent has evaporated off, the tubes are populated with 5-10 adult cat fleas (Ctenocephalides felis), sealed with a perforated plastic lid and incubated in a horizontal position at room temperature and ambient humidity. After 48 h, efficacy is determined. To this end, the tubes are stood upright and the fleas are knocked to the base of the tube. Fleas which remain motionless at the base or move in an uncoordinated manner are considered to be dead or moribund.
100% efficacy means that all the fleas were dead or moribund. 0% efficacy means that no fleas were harmed.

`O=C(NC1CC1)c1cc(-c2cnn(-c3c(Cl)cc(C(F)(C(F)(F)F)C(F)(F)F)cc3Cl)c2)sc1Br` [I-T1-1]: the efficacy in test [1], in test [3], in test [4], in test [6] (application rate 20 g/ha), in test [7] and in test [8] was 100% throughout. Further, the “efficacy (rate of extermination)” value in test [2] and in test [5] was 100% throughout. For the same compound, the Emax at 100 g/ha in test [6] (Tetranychus urticae, 144 h, TETRUR, 100 g ai/ha, 6 dat, read-out: % efficacy dat) came out at 70%; in test [7] (Myzus persicae, 120 h, MYZUPE, 100 g ai/ha, 5 dat, read-out: % efficacy dat), 100%.

As to `Cc1sc(-c2cnn(-c3c(Cl)cc(C(F)(C(F)(F)F)C(F)(F)F)cc3Cl)c2)cc1C(=O)NC1CC1` [I-T1-11], the efficacy is given as 100% in test [1]; 100% in test [3]; 100% in test [4]; 100% in test [6] (application rate 20 g/ha); 100% in test [6] (application rate 100 g/ha); 90% in test [7]. This compound gave an efficacy in test [8] of 100%. Further, the “efficacy (rate of extermination)” value in test [2] and in test [5] was 100% in each case.
